# Publication PMC5502055, “Phase II study of lanreotide autogel in Japanese patients with unresectable or metastatic well-differentiated neuroendocrine tumors” (Investigational New Drugs, 2017)
# Tests used:
# [1] = system: Japanese patients with grade (G) 1/G2 NET; assay: Safety: adverse events (NCI-CTCAE ver. 4.0); assay type: in vivo, human; settings: for Adverse events (any): N=32
# Protocol: For the safety evaluation, adverse events (AEs) were recorded after the first injection until the point of data cutoff (December 2015) in the extension study. AE severity was assessed according to the National Cancer Institute Common Terminology Criteria for Adverse Events (NCI-CTCAE) ver. 4.0. Gallbladder echography and blood evaluations, including serum anti-lanreotide antibody tests were performed every 12 weeks during the 48 -week period after the first injection, and every 24 weeks thereafter.
# Full analysis set (FAS) and CLARINET-like FAS which was satisfied eligibility criteria of the CLARINET study were used for efficacy analysis. Safety analysis set which included patients who had received the study drug at least once was used for safety analysis. Per protocol set (PPS) was used for pharmacokinetic analysis.
# Safety was evaluated using results which obtained by the data in the phase II and extension studies up to the time of data cutoff. The maximum exposure period from baseline to the time of data cutoff was 100.0 weeks (median, 87.3 weeks), and the mean exposure period (SD) was 83.1 weeks (15.2 weeks).
# Adverse events were evaluated using the National Cancer Institute Common Terminology Criteria for Adverse Events (NCI-CTCAE), ver. 4.0.
# [2] = system: non-functional enteropancreatic NET; settings: CLARINET study, cited from earlier work
# Description: Tumors occurring in nerves or endocrine cells anywhere in the body can be classified as neuroendocrine neoplasm (NEN). NEN is classified into poorly-differentiated neuroendocrine carcinoma and well-differentiated neuroendocrine tumor (NET). NET is a rare disease and tends to proliferate slowly. According to an epidemiological survey conducted in Japan in 2010, the incidence of new pancreatic and gastrointestinal NET was 4.78 per 100,000 people (estimated number of patients treated: 11,467). The incidences of NET other than pancreatic and gastrointestinal NET remain unknown in Japan, wher ... || Furthermore, in the CLARINET study, a median PFS was not reached at 96 weeks (24 months), in contrast to the median PFS of 36.3 weeks (based on the RECIST ver. 1.1) in the present study. This difference is attributed to differences in baseline disease characteristics of the patient and tumor characteristics. The percentages of patients with PD at baseline and prior treatment for NET were 39.3% (11/28 patients) and 78.6% (22/28 patients), respectively, in the present, and only 4.0% (4/101 patients) and 15.8% (16/101 patients), respectively, in the CLARINET study. The current Japanese stud ...
# [3] = system: Japanese patients with grade (G) 1/G2 NET; assay: Post hoc analysis of tumor growth rate (TGR); assay type: in vivo, human; design: key to TGR (0-Last): % change in tumor volume per month; settings: for TGR (0-Last): mean ± SD
# Protocol: The descriptive statistics of tumor growth rate (TGR) were calculated in a post hoc analysis of the FAS. The TGR estimates the change of the tumor volume during 1 month. This value incorporates the intervals between imaging tests, thus allowing a quantitative and dynamic evaluation of the tumor response. Scatter plots were prepared, and a subgroup analysis was conducted. To calculate TGR, results evaluated by the investigator were used before baseline, and results determined via central evaluation were used after baseline. There were not enough events for multivariate analysis, therefore univariate analysis based on the Cox proportional hazard model was implemented to assess prognostic factors.
# The TGR per unit time was calculated in the post-hoc analysis. From past to 0 (baseline), the results of the investigator’s evaluation were used for tumor lesions, after baseline, the results of a central evaluation were used for the tumor lesions. The TGR (mean ± SD) before the first injection was 25.3 ± 35.7%, and the TGR from baseline to the last value was 5.4 ± 10.7% (Fig. 4).
structure (smiles),measurement,setting,value
CC(C)[C@@H]1NC(=O)[C@H](CCCCN)NC(=O)[C@@H](Cc2c[nH]c3ccccc23)NC(=O)[C@H](Cc2ccc(O)cc2)NC(=O)[C@@H](NC(=O)[C@H](N)Cc2ccc3ccccc3c2)CSSC[C@@H](C(=O)N[C@H](C(N)=O)[C@@H](C)O)NC1=O [lanreotide],Serious AEs,[1]; 6 patients of 32,18.8%
same,Adverse events (any),[1]; Grade 3,11 (34.4) Number of patients (%)
same,Grade 3 or higher ADRs,"[1]; Grade 3 only, 6 patients of 32",18.8%
same,Adverse events (any),[1]; Grade 4,2 (6.3) Number of patients (%)
same,Adverse events (any),[1]; Grade 5,0 Number of patients (%)
same,ADR faeces pale,[1]; safety analysis set n=32,18.8%
same,ADR flatulence,[1]; safety analysis set n=32,12.5%
same,ADR injection site induration,[1]; safety analysis set n=32,28.1%
same,Grade 4/5 ADRs and ADRs necessitating discontinuation of the study drug,[1]; safety analysis set n=32,did not occur
same,serious ADR pyrexia,[1]; safety analysis set n=32,3.1%
same,patients with AEs related to study drug (ADRs),"[1]; safety analysis set n=32, 27 patients",84.4%
same,patients with AEs,"[1]; safety analysis set n=32, 31 patients",96.9%
same,median PFS,"[2]; up to 96 weeks (24 months), placebo 18.0 months",not reached
same,hazard ratio for PFS vs placebo,"[2]; 95% CI 0.30-0.73, P < 0.001",0.47
same,TGR from baseline to the last value (mean ± SD),"[3]; FAS n=28, post hoc, TGR before the first injection 25.3 ± 35.7%",5.4 ± 10.7%
same,TGR (0-Last),"[3]; FAS subgroup Age (years) >65, N=12",5.44 ± 10.34
same,TGR (0-Last),"[3]; FAS subgroup Age (years) ≤65, N=16",5.41 ± 11.34
same,TGR (0-Last),"[3]; FAS subgroup Baseline TGR (%/month) <10, N=13",3.41 ± 9.43
same,TGR (0-Last),"[3]; FAS subgroup Baseline TGR (%/month) ≥10, N=15",7.17 ± 11.76
same,TGR (0-Last),"[3]; FAS subgroup Grade of tumor Grade 1, N=9",1.65 ± 5.95
same,TGR (0-Last),"[3]; FAS subgroup Grade of tumor Grade 2, N=19",7.21 ± 12.09
same,TGR (0-Last),"[3]; FAS subgroup Hepatic tumor load (%) >10 and ≤25, N=6",8.10 ± 15.47
same,TGR (0-Last),"[3]; FAS subgroup Hepatic tumor load (%) >25 and ≤50, N=3",9.49 ± 9.98
same,TGR (0-Last),"[3]; FAS subgroup Hepatic tumor load (%) ≥0 and ≤10, N=18",4.09 ± 9.60
same,TGR (0-Last),"[3]; FAS subgroup Ki67 index (%) >2 and ≤5, N=8",5.55 ± 8.50
same,TGR (0-Last),"[3]; FAS subgroup Ki67 index (%) >5 and <10, N=9",4.63 ± 11.81
same,TGR (0-Last),"[3]; FAS subgroup Ki67 index (%) ≤ 2, N=8",1.82 ± 6.34
same,TGR (0-Last),"[3]; FAS subgroup Sex Female, N=9",2.71 ± 10.00
same,TGR (0-Last),"[3]; FAS subgroup Sex Male, N=19",6.71 ± 11.07
same,TGR (0-Last),"[3]; FAS subgroup primary tumor site Hindgut, N=8",16.35 ± 11.02
same,TGR (0-Last),"[3]; FAS subgroup primary tumor site Other/ Unknown, N=5",4.23 ± 6.12
same,TGR (0-Last),"[3]; FAS subgroup primary tumor site Pancreas, N=12",0.43 ± 7.83
same,TGR (0-Last),"[3]; FAS subgroup prior treatment for NET Absent, N=6",0.69 ± 5.09
same,TGR (0-Last),"[3]; FAS subgroup prior treatment for NET Present, N=22",6.72 ± 11.55
same,TGR (0-Last),"[3]; FAS subgroup progressive disease at baseline Absent, N=17",1.99 ± 6.50
same,TGR (0-Last),"[3]; FAS subgroup progressive disease at baseline Present, N=11",10.74 ± 13.84
same,patients with decrease in TGR at the last value,"[3]; population with PD at baseline, 10 of 11 patients",90.9%
